Test results reported in patent publication US8865683B2, “Active compound combinations having insecticidal properties” (priority 2003, dated 2014).

Test system: green peach aphid (Myzus persicae)
Assay: Myzus persicae test (cabbage leaf dip)
Type: in vivo
Details: cabbage leaves (Brassica oleracea) dipped
Source text: The expected action for a given combination of two active compounds can be calculated according to S. R. Colby, Weed, 15 (1967), 20-22): […]
If • X is the kill rate, expressed as a percentage of the untreated control, when employing active compound A at an application rate of m g/ha or in a concentration of m ppm, • Y is the kill rate, expressed as a percentage of the untreated control, when employing active compound B at an application rate of n g/ha or in a concentration of n ppm and • E is the kill rate, expressed as a percentage of the untreated control, when employing active compounds A and B at application rates of m and n g/ha or in a concentration of m and n ppm, then
If the actual insecticidal kill rate exceeds the calculated value, the action of the combination is superadditive, i.e. a synergistic effect is present. In this case, the actually observed kill rate must exceed the value calculated using the above formula for the expected kill rate (E).
After the desired period of time, the kill in % is determined. 100% means that all animals have been killed; 0% means that none of the animals have been killed. […]
After the desired period of time, the kill in % is determined. […] The determined kill ratios are entered into Colby's formula (see page 42).

Compound | Kill rate in % after 1d, found (0.8 ppm active compound) [%] | Kill rate in % after 1d, found (4 ppm active compound) [%]
CCOP(=S)(OCC)Oc1nc(Cl)c(Cl)cc1Cl [(2-2) chlorpyrifos, chlorpyrifos] | 65 | 
Cc1cc(Cl)cc(C(=O)NC(C)C)c1NC(=O)c1cc(C(F)(F)F)nn1-c1ncccc1Cl [(I-1-9)] |  | 0
